The IC50 is the point on the concentration scale where inhibition reaches its midpoint. A lower IC50 goes with inhibition by little substance.

Common to all, as to type: biochemical
Conditions in all cases: KINASE-GLO luminescent kinase assay
Background: Kinase-Glo reads ATP consumption through a luciferase reaction.

For one test, the target named is ROCK2 (Homo sapiens (Human), UniProt O75116). The test is described as follows: ROCK Kinase Inhibition Assay (ROCK2). How it is done: (§1) All compounds were initially prepared as 10 mM stocks in anhydrous dimethylsulfoxide (DMSO). A 20 μL aliquot of the 10 mM solutions was transferred to individual wells in column 1 of a 96-well polypropylene microtiter plate (Corning #3363) and diluted with DMSO to give a final compound concentration of 4 mM. Test compounds were then serially diluted 1:5 in DMSO for an 11-point concentration response and further diluted in the assay buffer bringing all compound concentrations to a final range of 100 μM to […] in 2.5% DMSO. The assay was performed in white 96-well, flat-bottom, half-area, non-binding assay plate (Corning #3642) in assay buffer consisting of 20 mM HEPES (pH 7.5), 10 mM MgCl2*6H2O, 100 μM sodium orthovanadate, 0.05% CHAPS and 0.1% bovine serum albumin. […] The reaction was initiated by the addition of 10 μL of 4× stock solution ATP (2 μM). Reactions were thoroughly mixed manually, covered and allowed to incubate at room temperature for 75 min. Protein kinase activity was quantitated using Promega's KINASE-GLO™ luminescent Kinase Assay Kit according to the manufacturer's directions. ATP concentrations remaining in Test wells following the termination of the enzymatic reaction were compared against control wells containing equivalent amounts of DMSO containing no inhibitor (CTRL). […] Percent of Control (POC) values were determined for each concentration of compound tested according to the equation: POC=((Test well value−BKG)/(CTRL−BKG))*100 IC50 values were calculated using the following 4-parameter logistic curve-fitting algorithm: f(x)=(A+((B−A)/(1+((x/C)^D)))) IC50 values were converted to Ki values using the following Cheng-Prusoff Equation: Ki=IC50/(1+([ATP]/Km ATP])). JAK Kinase Assays.

Another test concerns the target TYK2 (Homo sapiens (Human), UniProt P29597). The test is described as follows: JAK Kinase Assay (TYK2).
The next test addresses JAK2 (Homo sapiens (Human), UniProt O60674). The test is described as follows: JAK Kinase Assay (JAK2).
For a further test, the target named is ROCK1 (Homo sapiens (Human), UniProt Q13464). Put plainly: ROCK Kinase Inhibition Assay (ROCK1). How it is done:
as §1, with “Reactions were thoroughly mixed manually, covered and allowed to incubate at room temperature for 75 min.” left out, “directions.” for “directions. ATP concentrations remaining in Test wells following the termination of the enzymatic reaction were compared against control wells containing equivalent amounts of DMSO containing no inhibitor (CTRL).”, “JAK Kinase Assays.” left out

The target of a further test is JAK1 (Homo sapiens (Human), UniProt P23458). The test is described as follows: JAK Kinase Assay (JAK1).

Chain of TYK2 (P29597 whole entry, species assumed): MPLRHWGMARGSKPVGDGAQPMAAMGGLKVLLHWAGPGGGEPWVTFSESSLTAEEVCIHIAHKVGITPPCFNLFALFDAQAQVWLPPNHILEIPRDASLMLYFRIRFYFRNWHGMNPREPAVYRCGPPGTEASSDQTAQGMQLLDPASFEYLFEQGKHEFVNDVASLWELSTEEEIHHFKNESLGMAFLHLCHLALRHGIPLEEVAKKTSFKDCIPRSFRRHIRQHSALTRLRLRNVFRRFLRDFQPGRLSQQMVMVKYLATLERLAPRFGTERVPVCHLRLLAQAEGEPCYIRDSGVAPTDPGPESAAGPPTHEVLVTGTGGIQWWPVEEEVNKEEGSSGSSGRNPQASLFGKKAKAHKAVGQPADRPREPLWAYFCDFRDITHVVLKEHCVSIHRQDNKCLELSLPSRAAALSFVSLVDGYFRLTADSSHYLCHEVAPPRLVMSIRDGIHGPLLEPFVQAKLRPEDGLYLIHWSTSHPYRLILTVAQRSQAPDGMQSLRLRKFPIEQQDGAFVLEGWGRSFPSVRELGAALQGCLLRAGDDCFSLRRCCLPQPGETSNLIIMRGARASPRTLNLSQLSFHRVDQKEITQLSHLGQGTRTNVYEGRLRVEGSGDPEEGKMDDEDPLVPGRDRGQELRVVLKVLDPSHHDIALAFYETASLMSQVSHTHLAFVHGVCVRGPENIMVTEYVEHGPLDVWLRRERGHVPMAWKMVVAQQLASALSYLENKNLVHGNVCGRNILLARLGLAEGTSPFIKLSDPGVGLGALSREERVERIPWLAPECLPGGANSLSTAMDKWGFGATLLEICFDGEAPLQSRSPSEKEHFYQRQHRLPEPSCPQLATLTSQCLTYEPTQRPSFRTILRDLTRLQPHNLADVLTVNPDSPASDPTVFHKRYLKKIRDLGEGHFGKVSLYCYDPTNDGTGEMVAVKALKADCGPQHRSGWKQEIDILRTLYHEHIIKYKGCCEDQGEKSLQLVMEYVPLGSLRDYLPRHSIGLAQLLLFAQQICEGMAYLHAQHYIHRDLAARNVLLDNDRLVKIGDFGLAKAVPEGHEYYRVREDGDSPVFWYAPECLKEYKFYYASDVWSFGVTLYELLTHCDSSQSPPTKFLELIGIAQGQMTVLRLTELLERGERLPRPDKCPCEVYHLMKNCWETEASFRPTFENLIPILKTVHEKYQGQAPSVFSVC
Chain of JAK2 (O60674 whole entry, species assumed): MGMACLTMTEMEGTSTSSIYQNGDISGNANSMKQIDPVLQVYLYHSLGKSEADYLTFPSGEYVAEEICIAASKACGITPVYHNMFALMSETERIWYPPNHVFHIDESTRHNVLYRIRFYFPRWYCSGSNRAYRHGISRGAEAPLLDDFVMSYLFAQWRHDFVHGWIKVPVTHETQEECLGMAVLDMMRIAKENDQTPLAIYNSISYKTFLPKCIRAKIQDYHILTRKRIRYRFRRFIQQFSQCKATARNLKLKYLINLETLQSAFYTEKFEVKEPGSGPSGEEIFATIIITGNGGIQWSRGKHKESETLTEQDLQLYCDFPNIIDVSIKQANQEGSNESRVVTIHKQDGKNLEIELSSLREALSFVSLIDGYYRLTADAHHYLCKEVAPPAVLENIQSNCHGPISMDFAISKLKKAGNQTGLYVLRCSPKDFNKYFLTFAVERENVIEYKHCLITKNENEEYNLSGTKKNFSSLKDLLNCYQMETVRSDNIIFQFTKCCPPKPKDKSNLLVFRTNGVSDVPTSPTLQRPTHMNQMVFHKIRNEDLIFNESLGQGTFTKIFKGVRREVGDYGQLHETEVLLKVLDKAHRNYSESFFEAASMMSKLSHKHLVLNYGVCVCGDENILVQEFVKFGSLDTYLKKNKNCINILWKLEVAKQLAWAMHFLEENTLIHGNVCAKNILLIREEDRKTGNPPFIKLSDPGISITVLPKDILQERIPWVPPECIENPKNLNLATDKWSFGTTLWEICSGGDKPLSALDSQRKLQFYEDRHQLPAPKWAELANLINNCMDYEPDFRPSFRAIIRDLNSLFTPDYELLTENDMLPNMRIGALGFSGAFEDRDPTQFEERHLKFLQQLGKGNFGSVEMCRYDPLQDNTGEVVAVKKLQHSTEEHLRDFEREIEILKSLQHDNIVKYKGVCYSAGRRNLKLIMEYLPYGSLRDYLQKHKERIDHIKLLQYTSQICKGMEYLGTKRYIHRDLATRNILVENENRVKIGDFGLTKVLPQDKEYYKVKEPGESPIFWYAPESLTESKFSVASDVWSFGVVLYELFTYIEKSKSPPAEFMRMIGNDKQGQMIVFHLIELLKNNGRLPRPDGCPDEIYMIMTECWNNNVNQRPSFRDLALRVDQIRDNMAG
Chain of ROCK2 (O75116 whole entry, species assumed): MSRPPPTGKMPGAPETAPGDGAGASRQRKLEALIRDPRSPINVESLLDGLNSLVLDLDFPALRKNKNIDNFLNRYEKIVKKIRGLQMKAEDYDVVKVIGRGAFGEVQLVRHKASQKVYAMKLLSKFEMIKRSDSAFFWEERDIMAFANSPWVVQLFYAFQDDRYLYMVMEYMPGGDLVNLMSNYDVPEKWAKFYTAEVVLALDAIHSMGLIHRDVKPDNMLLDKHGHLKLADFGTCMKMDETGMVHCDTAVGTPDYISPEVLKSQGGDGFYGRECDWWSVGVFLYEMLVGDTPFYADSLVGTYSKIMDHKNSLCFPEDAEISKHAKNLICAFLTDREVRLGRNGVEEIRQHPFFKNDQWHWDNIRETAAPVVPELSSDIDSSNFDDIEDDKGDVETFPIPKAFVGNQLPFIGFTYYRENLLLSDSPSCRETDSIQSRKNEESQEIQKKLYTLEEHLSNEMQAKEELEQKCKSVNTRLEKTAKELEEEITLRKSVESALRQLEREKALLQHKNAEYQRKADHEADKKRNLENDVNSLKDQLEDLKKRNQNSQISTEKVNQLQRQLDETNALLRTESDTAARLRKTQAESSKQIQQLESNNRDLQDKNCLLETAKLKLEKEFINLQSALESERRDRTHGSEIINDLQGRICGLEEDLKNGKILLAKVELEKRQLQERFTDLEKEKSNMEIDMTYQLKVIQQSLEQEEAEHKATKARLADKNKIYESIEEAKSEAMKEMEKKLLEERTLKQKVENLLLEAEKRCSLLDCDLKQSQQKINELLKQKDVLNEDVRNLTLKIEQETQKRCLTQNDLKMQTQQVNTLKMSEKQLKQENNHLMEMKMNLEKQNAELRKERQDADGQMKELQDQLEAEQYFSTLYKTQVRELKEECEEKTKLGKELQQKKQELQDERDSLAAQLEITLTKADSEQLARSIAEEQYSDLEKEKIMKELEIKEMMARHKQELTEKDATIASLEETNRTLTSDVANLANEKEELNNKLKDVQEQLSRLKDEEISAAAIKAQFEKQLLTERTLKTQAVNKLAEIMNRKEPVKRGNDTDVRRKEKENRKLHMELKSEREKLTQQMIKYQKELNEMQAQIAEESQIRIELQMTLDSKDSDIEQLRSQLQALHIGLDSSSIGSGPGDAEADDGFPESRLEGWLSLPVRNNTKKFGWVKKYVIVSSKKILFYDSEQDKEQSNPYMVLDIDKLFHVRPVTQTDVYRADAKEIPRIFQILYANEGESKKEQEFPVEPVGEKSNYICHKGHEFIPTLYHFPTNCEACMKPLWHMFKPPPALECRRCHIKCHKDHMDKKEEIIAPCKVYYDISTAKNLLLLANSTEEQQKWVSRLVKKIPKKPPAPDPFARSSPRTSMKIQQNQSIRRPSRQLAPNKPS
Chain of ROCK1 (Q13464 whole entry, species assumed): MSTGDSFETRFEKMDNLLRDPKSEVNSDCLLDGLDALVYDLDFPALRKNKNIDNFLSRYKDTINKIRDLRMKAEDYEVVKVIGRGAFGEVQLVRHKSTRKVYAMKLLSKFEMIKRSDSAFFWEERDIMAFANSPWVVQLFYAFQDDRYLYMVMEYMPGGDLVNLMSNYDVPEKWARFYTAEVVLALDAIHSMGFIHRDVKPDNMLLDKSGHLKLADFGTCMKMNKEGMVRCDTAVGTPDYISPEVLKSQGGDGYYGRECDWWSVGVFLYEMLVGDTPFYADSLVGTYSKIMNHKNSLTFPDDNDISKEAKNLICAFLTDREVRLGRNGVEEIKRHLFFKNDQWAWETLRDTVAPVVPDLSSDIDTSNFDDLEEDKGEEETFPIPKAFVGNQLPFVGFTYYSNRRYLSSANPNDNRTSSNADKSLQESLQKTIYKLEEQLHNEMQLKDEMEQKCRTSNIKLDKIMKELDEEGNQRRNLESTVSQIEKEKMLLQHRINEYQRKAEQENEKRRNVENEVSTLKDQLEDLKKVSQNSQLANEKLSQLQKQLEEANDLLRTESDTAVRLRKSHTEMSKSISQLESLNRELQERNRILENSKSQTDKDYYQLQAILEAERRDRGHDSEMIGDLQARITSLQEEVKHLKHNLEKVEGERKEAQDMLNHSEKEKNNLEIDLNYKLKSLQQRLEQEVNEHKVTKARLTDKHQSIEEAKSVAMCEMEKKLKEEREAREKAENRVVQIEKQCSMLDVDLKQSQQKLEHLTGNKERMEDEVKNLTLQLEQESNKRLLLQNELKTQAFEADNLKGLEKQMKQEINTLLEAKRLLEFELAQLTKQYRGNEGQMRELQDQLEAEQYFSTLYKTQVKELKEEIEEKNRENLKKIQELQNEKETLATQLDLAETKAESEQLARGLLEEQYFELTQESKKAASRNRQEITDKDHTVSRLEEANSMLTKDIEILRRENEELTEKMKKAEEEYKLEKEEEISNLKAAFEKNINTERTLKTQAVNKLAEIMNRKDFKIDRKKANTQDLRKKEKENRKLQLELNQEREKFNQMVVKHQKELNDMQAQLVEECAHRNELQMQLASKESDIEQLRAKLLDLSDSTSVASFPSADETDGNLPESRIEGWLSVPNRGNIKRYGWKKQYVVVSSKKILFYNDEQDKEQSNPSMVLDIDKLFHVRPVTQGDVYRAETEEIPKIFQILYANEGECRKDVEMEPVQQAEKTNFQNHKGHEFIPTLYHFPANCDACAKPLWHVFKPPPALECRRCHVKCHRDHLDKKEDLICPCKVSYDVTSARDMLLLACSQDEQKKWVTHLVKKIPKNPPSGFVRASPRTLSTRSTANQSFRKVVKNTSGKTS

On ROCK2, `O=C(Nc1cc2c(Cl)cncc2s1)C1CC1c1ccncc1` (centres unmarked) [Compound 21] gave a half-maximal inhibitory concentration (IC50) of 111 nM.

As for `Cc1cncc2sc(NC(=O)C3CC3c3ccccc3)cc12` (centres unmarked) [Compound 16], at ROCK2, the half-maximal inhibitory concentration (IC50) is 54 nM.

In turn, `Cc1cncc2sc(NC(=O)[C@@H]3C[C@H]3c3ccc(S(=O)(=O)Nc4ccccn4)cc3)cc12` [Compound 6] registered a 50% inhibitory concentration (IC50) on TYK2 of 8 nM.

For `O=C(Nc1ccc2cnccc2n1)C1CC1c1ccncc1` (centres unmarked) [Compound 17], half-maximal inhibition at ROCK2 (IC50) was put at 30 nM. On JAK2, `O=C(Nc1ccc2cnccc2n1)C1CC1c1ccc(S(=O)(=O)Nc2ccccn2)cc1` (centres unmarked) [Compound 22] registered a concentration for half-maximal inhibition (IC50) of 22 nM. Turning to `O=C(Nc1cc2c(Cl)cncc2s1)C1CC1c1ccccc1` (centres unmarked) [Compound 19], on ROCK1, it took 43 nM to reach half-maximal inhibition (IC50). Regarding `O=C(Nc1ccc2cnccc2n1)[C@@H]1CC1c1ccc(S(=O)(=O)Nc2ccccn2)cc1` (mixture of isomers) [Compound 4], the results for the IC50 against ROCK2 and against JAK2 were 6 nM and 22 nM, respectively. In turn, `Cc1cncc2sc(NC(=O)C3CC3c3cc(C(=O)NCc4ncccn4)cs3)cc12` (centres unmarked) [Compound 2] displayed a half-inhibitory concentration (IC50) against ROCK2 of 5 nM. The compound `O=C(Nc1ccc2cnccc2n1)C1CC1c1ccccc1` (centres unmarked) [Compound 11] yielded a concentration for half-maximal inhibition (IC50) against ROCK2 of 7 nM. For the compound `Cc1cncc2sc(NC(=O)C3CC3c3ccncc3)cc12` (centres unmarked) [Compound 14], on ROCK2, inhibition was half-maximal at 230 nM (IC50). On ROCK2, `Cc1cncc2sc(NC(=O)[C@@H]3C[C@H]3c3ccccc3)cc12` [Compound 13] registered an IC50 of 18 nM.

In turn, `Cc1cncc2sc(NC(=O)[C@@H]3C[C@H]3c3ccc(S(=O)(=O)Nc4ccccn4)cc3)cc12` (racemic) [Compound 5] registered an IC50 against JAK2 of 8.9 nM. Compound `O=C(Nc1nc2ccncc2s1)C1CC1c1ccccc1` (centres unmarked) [Compound 12] yielded an IC50 against ROCK2 of 12 nM.

In the case of `O=C(Nc1nc2ccncc2s1)C1CC1c1ccncc1` (centres unmarked) [Compound 18], at ROCK2, the 50% inhibitory concentration (IC50) came out at 30 nM. `O=C(Nc1cc2c(Cl)cncc2s1)[C@@H]1C[C@H]1c1ccc(S(=O)(=O)Nc2ccccn2)cc1` [Compound 7] had a 50% inhibitory concentration (IC50) against TYK2 of 1.1 nM.

Take `O=C(Nc1cc2c(Cl)cncc2s1)[C@@H]1C[C@H]1c1ccccc1` [Compound 15]: at JAK1, the IC50 turned out to be 350 nM. As for `O=C(Nc1nc2ccncc2s1)[C@@H]1CC1c1ccc(S(=O)(=O)Nc2ccccn2)cc1` (mixture of isomers) [Compound 3], the half-maximal inhibitory concentration (IC50) against ROCK2 stood at 6 nM; against ROCK1, 7 nM.

On TYK2, `O=C(NCc1ncccn1)c1csc(C2CC2C(=O)Nc2cc3c(Cl)cncc3s2)c1` (centres unmarked) [Compound 20] gave an IC50 of 35 nM.

(Values after US12459956B2, “Heterobicyclic carboxamides and uses thereof” (ALCON INC., priority 2019, dated 2025).)
